The source of these data is ChEMBL document CHEMBL1949576, “Praziquantel derivatives exhibit activity against both juvenile and adult Schistosoma japonicum” (2012).

Format in all cases: functional
The test system of assay [1] is Schistosoma japonicum. The assay can be described thus: Antischistosomal activity against adult Schistosoma japonicum assessed as worm survival at 50 uM after 48 hrs relative to control.
The subject of assay [2] is Schistosoma japonicum. The assay can be described thus: Antischistosomal activity against adult Schistosoma japonicum assessed as worm survival at 80 uM after 48 hrs relative to control.
The subject of assay [3] is Schistosoma japonicum. The assay can be described thus: Antischistosomal activity against adult Schistosoma japonicum assessed as worm survival at 100 uM after 48 hrs relative to control.
Assay [4] relates to Schistosoma japonicum. The assay can be described thus: Antischistosomal activity against adult Schistosoma japonicum assessed as worm survival at 50 uM after 72 hrs relative to control.
For assay [5], the system named is Schistosoma japonicum. The assay can be described thus: Antischistosomal activity against adult Schistosoma japonicum assessed as worm survival at 80 uM after 72 hrs relative to control.
The test system of assay [6] is Schistosoma japonicum. The assay can be described thus: Antischistosomal activity against adult Schistosoma japonicum assessed as worm survival at 100 uM after 72 hrs relative to control.
Assay [7] relates to Schistosoma japonicum. The assay can be described thus: Antischistosomal activity against juvenile Schistosoma japonicum assessed as worm survival at 50 uM after 24 hrs relative to control.
The subject of assay [8] is Schistosoma japonicum. The assay can be described thus: Antischistosomal activity against juvenile Schistosoma japonicum assessed as worm survival at 50 uM after 48 hrs relative to control.
Assay [9] has as its system Schistosoma japonicum. The assay can be described thus: Antischistosomal activity against juvenile Schistosoma japonicum assessed as worm survival at 50 uM after 72 hrs relative to control.
Assay [10] has as its system Schistosoma japonicum. The assay can be described thus: Antischistosomal activity against adult Schistosoma japonicum assessed as worm survival at 50 uM after 24 hrs relative to control.
The test system of assay [11] is Schistosoma japonicum. The assay can be described thus: Antischistosomal activity against adult Schistosoma japonicum assessed as worm survival at 80 uM after 24 hrs relative to control.
The subject of assay [12] is Schistosoma japonicum. The assay can be described thus: Antischistosomal activity against adult Schistosoma japonicum assessed as worm survival at 100 uM after 24 hrs relative to control.
The subject of assay [13] is Schistosoma japonicum. The assay can be described thus: Antischistosomal activity against adult Schistosoma japonicum assessed as worm survival at 25 uM after 48 hrs relative to control.
In assay [14] the test system is Schistosoma japonicum. The assay can be described thus: Antischistosomal activity against adult Schistosoma japonicum assessed as worm survival at 20 uM after 48 hrs relative to control.
Assay [15] concerns Schistosoma japonicum. The assay can be described thus: Antischistosomal activity against adult Schistosoma japonicum assessed as worm survival at 15 uM after 48 hrs relative to control.
For assay [16], the system named is Schistosoma japonicum. The assay can be described thus: Antischistosomal activity against adult Schistosoma japonicum assessed as worm survival at 25 uM after 72 hrs relative to control.
Assay [17] concerns Schistosoma japonicum. The assay can be described thus: Antischistosomal activity against adult Schistosoma japonicum assessed as worm survival at 20 uM after 72 hrs relative to control.
Assay [18] concerns Schistosoma japonicum. The assay can be described thus: Antischistosomal activity against adult Schistosoma japonicum assessed as worm survival at 15 uM after 72 hrs relative to control.
Assay [19] relates to Schistosoma japonicum. The assay can be described thus: Antischistosomal activity against juvenile Schistosoma japonicum assessed as worm survival at 15 uM after 24 hrs relative to control.
For assay [20], the system named is Schistosoma japonicum. The assay can be described thus: Antischistosomal activity against juvenile Schistosoma japonicum assessed as worm survival at 10 uM after 24 hrs relative to control.
Assay [21] deals with Schistosoma japonicum. The assay can be described thus: Antischistosomal activity against juvenile Schistosoma japonicum assessed as worm survival at 15 uM after 48 hrs relative to control.
The test system of assay [22] is Schistosoma japonicum. The assay can be described thus: Antischistosomal activity against juvenile Schistosoma japonicum assessed as worm survival at 10 uM after 48 hrs relative to control.
Assay [23] deals with Schistosoma japonicum. The assay can be described thus: Antischistosomal activity against juvenile Schistosoma japonicum assessed as worm survival at 15 uM after 72 hrs relative to control.
Assay [24] has as its system Schistosoma japonicum. The assay can be described thus: Antischistosomal activity against juvenile Schistosoma japonicum assessed as worm survival at 10 uM after 72 hrs relative to control.
In assay [25] the test system is Schistosoma japonicum. The assay can be described thus: Antischistosomal activity against adult Schistosoma japonicum infected in mouse assessed as total worm reduction at 200 mg/kg, po administered 21 days after infection relative to control. The arrangement: scale not given: the % may be the effect or the level left.
For assay [26], the system named is Schistosoma japonicum. The assay can be described thus: Antischistosomal activity against juvenile Schistosoma japonicum infected in mouse assessed as total worm reduction at 200 mg/kg, po administered 14 days after infection relative to control. The arrangement: scale not given: the % may be the effect or the level left.
Assay [27] concerns Schistosoma japonicum. The assay can be described thus: Antischistosomal activity against adult Schistosoma japonicum assessed as worm survival at 25 uM after 24 hrs relative to control.
Assay [28] has as its system Schistosoma japonicum. The assay can be described thus: Antischistosomal activity against adult Schistosoma japonicum assessed as worm survival at 20 uM after 24 hrs relative to control.
For assay [29], the system named is Schistosoma japonicum. The assay can be described thus: Antischistosomal activity against adult Schistosoma japonicum assessed as worm survival at 15 uM after 24 hrs relative to control.
The subject of assay [30] is Schistosoma japonicum. The assay can be described thus: Antischistosomal activity against adult Schistosoma japonicum assessed as worm survival at 10 uM after 48 hrs relative to control.
Assay [31] deals with Schistosoma japonicum. The assay can be described thus: Antischistosomal activity against adult Schistosoma japonicum assessed as worm survival at 5 uM after 48 hrs relative to control.
For assay [32], the system named is Schistosoma japonicum. The assay can be described thus: Antischistosomal activity against adult Schistosoma japonicum assessed as worm survival at 10 uM after 72 hrs relative to control.
For assay [33], the system named is Schistosoma japonicum. The assay can be described thus: Antischistosomal activity against adult Schistosoma japonicum assessed as worm survival at 5 uM after 72 hrs relative to control.
In assay [34] the test system is Schistosoma japonicum. The assay can be described thus: Antischistosomal activity against juvenile Schistosoma japonicum assessed as worm survival at 25 uM after 24 hrs relative to control.
The test system of assay [35] is Schistosoma japonicum. The assay can be described thus: Antischistosomal activity against juvenile Schistosoma japonicum assessed as worm survival at 25 uM after 48 hrs relative to control.
Assay [36] deals with Schistosoma japonicum. The assay can be described thus: Antischistosomal activity against juvenile Schistosoma japonicum assessed as worm survival at 25 uM after 72 hrs relative to control.
In assay [37] the test system is Schistosoma japonicum. The assay can be described thus: Antischistosomal activity against adult Schistosoma japonicum assessed as worm survival at 10 uM after 24 hrs relative to control.
Assay [38] deals with Schistosoma japonicum. The assay can be described thus: Antischistosomal activity against adult Schistosoma japonicum assessed as worm survival at 5 uM after 24 hrs relative to control.
The test system of assay [39] is Schistosoma japonicum. The assay can be described thus: Antischistosomal activity against juvenile Schistosoma japonicum assessed as worm survival at 5 uM after 24 hrs relative to control.
Assay [40] concerns Schistosoma japonicum. The assay can be described thus: Antischistosomal activity against juvenile Schistosoma japonicum assessed as worm survival at 5 uM after 48 hrs relative to control.
Assay [41] has as its system Schistosoma japonicum. The assay can be described thus: Antischistosomal activity against juvenile Schistosoma japonicum assessed as worm survival at 5 uM after 72 hrs relative to control.

Regarding `O=C(Oc1ccc2c(c1)C1CN(C(=O)C3CCCCC3)CC(=O)N1CC2)C1CCC2(CC1)OOC1(CCCCC1)OO2` (stereo not given), the survival at 50 µM worked out at 80% in the assay with Schistosoma japonicum [1]; 80% with Schistosoma japonicum [4]; 0% in the assay on Schistosoma japonicum [7]; 14.3% with Schistosoma japonicum [8]; 14.3% with Schistosoma japonicum [9]; 40% with Schistosoma japonicum [10]. In addition, the survival at 80 µM with Schistosoma japonicum [2] came to 80%; with Schistosoma japonicum [5], 40%; in the assay on Schistosoma japonicum [11] it was 80%. Moreover, the figures for the survival at 100 µM in the assay on Schistosoma japonicum [3], in the assay with Schistosoma japonicum [6] and in the assay with Schistosoma japonicum [12] were 20%, 0% and 80%, respectively.
As to `C[C@H]1[C@@H](OC(=O)CCC(=O)Oc2ccc3c(c2)C2CN(C(=O)C4CCCCC4)CC(=O)N2CC3)O[C@@H]2O[C@@]3(C)CC[C@H]4[C@H](C)CC[C@@H]1[C@@]24OO3` (stereo not given in full), the survival at 50 µM in the assay on Schistosoma japonicum [1], in the assay with Schistosoma japonicum [4], with Schistosoma japonicum [7], in the assay on Schistosoma japonicum [8], in the assay with Schistosoma japonicum [9] and in the assay with Schistosoma japonicum [10] was 0% each time. The survival at 25 µM in the assay on Schistosoma japonicum [13], with Schistosoma japonicum [16] and in the assay on Schistosoma japonicum [27] was 0% in each case. Also, the survival at 20 µM in the assay with Schistosoma japonicum [14], in the assay on Schistosoma japonicum [17] and in the assay with Schistosoma japonicum [28] was 0% each time. Besides, the survival at 15 µM with Schistosoma japonicum [15], with Schistosoma japonicum [18], in the assay on Schistosoma japonicum [19], with Schistosoma japonicum [21], with Schistosoma japonicum [23] and with Schistosoma japonicum [29] was 0% in each case. For the same molecule, the survival at 10 µM turned out to be 16.7% with Schistosoma japonicum [20], 33.3% in the assay with Schistosoma japonicum [22] and 33.3% with Schistosoma japonicum [24]. Moreover, the figures for the Activity in the assay on Schistosoma japonicum [25] and in the assay on Schistosoma japonicum [26] were 56.2% and 70.3%, respectively.
With `C[C@H]1[C@@H](CC(=O)Oc2ccc3c(c2)C2CN(C(=O)C4CCCCC4)CC(=O)N2CC3)O[C@@H]2O[C@@]3(C)CC[C@H]4[C@H](C)CC[C@@H]1[C@@]24OO3` (stereo not given in full), the survival at 50 µM is 0% in the assay with Schistosoma japonicum [1]; 0% in the assay on Schistosoma japonicum [4]; 14.3% in the assay with Schistosoma japonicum [7]; 0% with Schistosoma japonicum [8]; 0% in the assay with Schistosoma japonicum [9]; 0% with Schistosoma japonicum [10]. Also, the survival at 25 µM came to 40% in the assay with Schistosoma japonicum [13]; 0% with Schistosoma japonicum [16]; 28.6% in the assay with Schistosoma japonicum [34]; 25% in the assay with Schistosoma japonicum [35]; 0% in the assay on Schistosoma japonicum [36]; 0% with Schistosoma japonicum [27]. For the same molecule, the survival at 10 µM in the assay with Schistosoma japonicum [30] turned out to be 80%; in the assay on Schistosoma japonicum [32], 0%; in the assay on Schistosoma japonicum [37] it was 100%. For the same molecule, the survival at 5 µM with Schistosoma japonicum [31] is 40%; with Schistosoma japonicum [33] it was 20%; with Schistosoma japonicum [38], 0%. In addition, the survival at 15 µM with Schistosoma japonicum [19], in the assay on Schistosoma japonicum [21] and in the assay with Schistosoma japonicum [23] was 28.6% in each case. Also, the Activity in the assay on Schistosoma japonicum [25] is recorded as 49.6%; in the assay on Schistosoma japonicum [26], 20.5%.
With `O=C(C1CCCCC1)N1CC(=O)N2CCc3ccc(O)cc3C2C1` (stereo not given), the survival at 50 µM in the assay on Schistosoma japonicum [1], in the assay with Schistosoma japonicum [4], in the assay on Schistosoma japonicum [7], in the assay on Schistosoma japonicum [8], in the assay with Schistosoma japonicum [9] and with Schistosoma japonicum [10] was 0% in each case. The survival at 25 µM with Schistosoma japonicum [13], in the assay on Schistosoma japonicum [16] and with Schistosoma japonicum [27] was 0% throughout. For the same molecule, the survival at 10 µM in the assay with Schistosoma japonicum [30] was found to be 20%; with Schistosoma japonicum [32], 20%; in the assay with Schistosoma japonicum [20], 0%; in the assay on Schistosoma japonicum [22], 45.5%; in the assay on Schistosoma japonicum [24], 54.5%; in the assay with Schistosoma japonicum [37], 0%. Moreover, the survival at 5 µM was 80% with Schistosoma japonicum [31]; 80% in the assay with Schistosoma japonicum [33]; 0% with Schistosoma japonicum [39]; 27.3% in the assay with Schistosoma japonicum [40]; 27.3% with Schistosoma japonicum [41]; 60% in the assay with Schistosoma japonicum [38]. The survival at 15 µM in the assay on Schistosoma japonicum [19], in the assay on Schistosoma japonicum [21] and in the assay on Schistosoma japonicum [23] was 0% throughout. Also, the Activity in the assay on Schistosoma japonicum [25] was 40.2%; in the assay on Schistosoma japonicum [26] it was 16.1%.
As to `O=C(Nc1ccc2c(c1)C1CN(C(=O)C3CCCCC3)CC(=O)N1CC2)C1CCC2(CC1)OOC1(CCCCC1)OO2` (stereo not given), the survival at 50 µM with Schistosoma japonicum [1] was 0%; in the assay on Schistosoma japonicum [4] it was 0%; with Schistosoma japonicum [7], 33.3%; in the assay with Schistosoma japonicum [8], 0%; in the assay with Schistosoma japonicum [9], 0%; in the assay with Schistosoma japonicum [10] it was 0%. The survival at 25 µM in the assay with Schistosoma japonicum [13] turned out to be 0%; with Schistosoma japonicum [16] it was 40%; in the assay on Schistosoma japonicum [34], 37.5%; in the assay with Schistosoma japonicum [35] it was 33.3%; in the assay with Schistosoma japonicum [36], 12.5%; in the assay on Schistosoma japonicum [27], 60%. Also, the survival at 20 µM with Schistosoma japonicum [14], in the assay with Schistosoma japonicum [17] and in the assay with Schistosoma japonicum [28] was 100% throughout. Moreover, the survival at 15 µM in the assay on Schistosoma japonicum [15], in the assay on Schistosoma japonicum [18] and with Schistosoma japonicum [29] was 100% throughout. Further, the Activity in the assay with Schistosoma japonicum [25] is reported as 38.7%; in the assay with Schistosoma japonicum [26], 25.1%.
`C[C@H]1[C@@H](CC(=O)Nc2ccc3c(c2)C2CN(C(=O)C4CCCCC4)CC(=O)N2CC3)O[C@@H]2O[C@@]3(C)CC[C@H]4[C@H](C)CC[C@@H]1[C@@]24OO3` (stereo not given in full): the survival at 50 µM in the assay with Schistosoma japonicum [1] was 80%; in the assay on Schistosoma japonicum [4], 100%; in the assay on Schistosoma japonicum [10], 20%.
In the case of `O=C(Nc1ccc2c(c1)C1CN(C(=O)C3CCCCC3)CC(=O)N1CC2)C1CCC2(CC1)OOC1(O2)C2CC3CC(C2)CC1C3` (stereo not given), the survival at 50 µM in the assay with Schistosoma japonicum [1], with Schistosoma japonicum [4] and in the assay with Schistosoma japonicum [10] was 100% in each case.
